The source of these data is patent US9546157B2, “Asymmetric piperidinyl-substituted ureas as medicines” (Helsinn Healthcare SA, priority 2014, dated 2017).

In assay [1] the target is T1, GHSR1a (Homo sapiens, UniProt Q92847).
T1 construct: expressed in transfected cells; host or cells: HEK293
Put plainly: Calcium FLIPR assay, GHSR-1a antagonism (reduction of ghrelin response). Format: cell-based. Particulars: HEK293/GHSR1a cells, ghrelin 10 nM. The method, then:
(§1) The intracellular calcium assay was carried out in a 384-well format FLIPR™ (Molecular Device) HEK293/GHSR1a cell line. Cells were seeded 24 hr prior to the experiments at an optimal density per well. Preincubation with selected calcium dye lasted for 30-60 min at room temperature or 37° C. Test compounds, dissolved in DMSO, were added at the appropriate time and incubated for 15 min followed by the addition of ghrelin with FlexStation or FLIPR. Relative fluorescence was monitored by the FLIPR™ Molecular Device. EC50 and IC50 values were estimated from dose-response data using GraphPad Prism software. To check for GHSR-1a agonism the compound was added at t=20 sec. and the calcium response was followed for 2 minutes. To check for GHSR-1a antagonism the compound and Ghrelin (10 nM) were added to the cells at t=20 sec. and the calcium response was measured for 2 minutes. The potency of the antagonist was calculated by its ability to reduce the ghrelin response. Dose-response curves were made for relevant antagonists.

Assay [2] concerns the target T1, GHSR1a. The assay is described as follows: Calcium FLIPR assay, GHSR-1a agonism. In kind it is cell-based. Details: Emax: unit not given here. Particulars: HEK293/GHSR1a cells. The method, then: as §1

The term IC50 denotes the concentration at which inhibition is half-maximal. A word on the EC50: it is the concentration at which the effect is half-maximal.

Where only a bound is given, the exact number is not on record here.

T1 sequence (Q92847 whole entry): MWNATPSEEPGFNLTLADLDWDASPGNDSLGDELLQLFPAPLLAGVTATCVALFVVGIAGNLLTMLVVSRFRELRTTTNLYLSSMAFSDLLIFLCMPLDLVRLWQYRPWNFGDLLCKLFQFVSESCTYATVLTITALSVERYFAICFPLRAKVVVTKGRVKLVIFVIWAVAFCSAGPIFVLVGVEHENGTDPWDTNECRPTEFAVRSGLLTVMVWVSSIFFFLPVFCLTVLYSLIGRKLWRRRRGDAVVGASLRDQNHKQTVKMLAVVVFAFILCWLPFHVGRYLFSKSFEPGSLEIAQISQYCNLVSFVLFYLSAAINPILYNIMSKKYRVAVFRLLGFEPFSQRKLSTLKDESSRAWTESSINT

Regarding `COc1ncc(-c2ccc(C(C)NC(=O)N(C)C3CCN(C)CC3)c(Cl)c2Cl)c(OC)n1` (stereo not drawn) [Compound H0663, 3-(1-(2,3-dichloro-4-(2,4-dimethoxypyrimidin-5-yl)phenyl)ethyl)-1-methyl-1-(1-methylpiperidin-4-yl)urea], in assay [1], the IC50 amounted to 274 nM. Also, the EC50 in assay [2] was > 30000 nM.
In the case of `CC(NC(=O)N(C)C1CCN(C)CC1)c1ccc(-c2sccc2CO)c(Cl)c1Cl` (stereo not drawn) [Compound H0664, 3-(1-(2,3-dichloro-4-(3-(hydroxymethyl)thiophen-2-yl)phenyl)ethyl)-1-methyl-1-(1-methylpiperidin-4-yl)urea], the IC50 in assay [1] was 261 nM. In addition, in assay [2], the EC50 was > 30000 nM.
On to `CN1CCC(N(C)C(=O)NC(C#N)c2ccc(-c3cncc(C#N)c3)c(Cl)c2Cl)CC1` (stereo not drawn) [Compound H0666, 3-(cyano(2,3-dichloro-4-(5-cyanopyridin-3-yl)phenyl)methyl)-1-methyl-1-(1-methylpiperidin-4-yl)urea], for which, in assay [1], the IC50 turned out to be 8 nM. Moreover, in assay [2], the EC50 is 21 nM and the Emax was found to be 4927.
`CC(NC(=O)N(C)C1CCN(C)CC1)c1ccc(-c2ccc(CF)s2)c(Cl)c1Cl` (stereo not drawn) [Compound H0668, 3-(1-(2,3-dichloro-4-(5-(fluoromethyl)thiophen-2-yl)phenyl)ethyl)-1-methyl-1-(1-methylpiperidin-4-yl)urea]: the IC50 in assay [1] came to 8 nM. Besides, in assay [2], the EC50 was 10 nM and the Emax amounted to 2168.
Consider `CN1CCC(N(C)C(=O)NC(CO)c2ccc(-c3cncnc3)c(Cl)c2Cl)CC1` (stereo not drawn) [Compound H0670, 3-(1-(2,3-dichloro-4-(pyrimidin-5-yl)phenyl)-2-hydroxyethyl)-1-methyl-1-(1-methylpiperidin-4-yl)urea], for which the IC50 in assay [1] stood at 523000 nM. In assay [2], the EC50 was > 30000 nM.
Regarding `COc1ccc(C(C)(C#N)NC(=O)N(C)C2CCN(C)CC2)c(Cl)c1Cl` (stereo not drawn) [Compound H0671, 3-(1-cyano-1-(2,3-dichloro-4-methoxyphenyl)ethyl)-1-methyl-1-(1-methylpiperidin-4-yl)urea], in assay [1], the IC50 turned out to be 34 nM. Besides, in assay [2], the EC50 was 60 nM and the Emax is given as 3748.
`CN1CCC(N(C)C(=O)NC2(c3ccc(-c4cccs4)c(Cl)c3Cl)CC2)CC1` [Compound H0672, 3-(1-(2,3-dichloro-4-(thiophen-2-yl)phenyl)cyclopropyl)-1-methyl-1-(1-methylpiperidin-4-yl)urea]: in assay [1], the IC50 was > 1 nM. Moreover, the EC50 in assay [2] is > 30000 nM.
For `CN1CCC(N(C)C(=O)NC2(c3ccc(-c4cncnc4)c(Cl)c3Cl)CC2)CC1` [Compound H0673, 3-(1-(2,3-dichloro-4-(pyrimidin-5-yl)phenyl)cyclopropyl)-1-methyl-1-(1-methylpiperidin-4-yl)urea], in that order: > 1000 nM and > 30000 nM.
For the compound `CC(=O)c1ccsc1-c1ccc(C(C)NC(=O)N(C)C2CCN(C)CC2)c(Cl)c1Cl` (stereo not drawn) [Compound H0688, 3-(1-(4-(3-acetylthiophen-2-yl)-2,3-dichlorophenyl)ethyl)-1-methyl-1-(1-methylpiperidin-4-yl)urea], the IC50 in assay [1] is 3 nM. For the same compound, in assay [2], the EC50 stood at 12 nM and the Emax is on record as 3100.
With `CC(NC(=O)N(C)C1CCN(C)CC1)c1ccc(-c2ccc(C(=O)O)s2)c(Cl)c1Cl` (stereo not drawn) [Compound H0689, 5-(2,3-dichloro-4-(1-(3-methyl-3-(1-methylpiperidin-4-yl)ureido)ethyl)phenyl)thiophene-2-carboxylic acid], the IC50 in assay [1] is > 1000 nM. Besides, the EC50 in assay [2] is > 30000 nM.
The matching figures for `CC(=O)c1cncc(-c2ccc(C(C)NC(=O)N(C)C3CCN(C)CC3)c(Cl)c2Cl)c1` (stereo not drawn) [Compound H0690, 3-(1-(4-(5-acetylpyridin-3-yl)-2,3-dichlorophenyl)ethyl)-1-methyl-1-(1-methylpiperidin-4-yl)urea]: 980 nM and > 30000 nM.
For `CON(C)C(=O)c1ccc(-c2ccc(C(C)NC(=O)N(C)C3CCN(C)CC3)c(Cl)c2Cl)s1` (stereo not drawn) [Compound H0692, 5-(2,3-dichloro-4-(1-(3-methyl-3-(1-methylpiperidin-4-yl)ureido)ethyl)phenyl)-N-methoxy-N-methylthiophene-2-carboxamide], in that order: 550 nM and > 1000 nM.
The matching figures for `CC(NC(=O)N(C)C1CCN(C)CC1)c1ccc(-c2cnn(CCO)c2)c(Cl)c1Cl` (stereo not drawn) [Compound H0693, 3-(1-(2,3-dichloro-4-(1-(2-hydroxyethyl)-1H-pyrazol-4-yl)phenyl)ethyl)-1-methyl-1-(1-methylpiperidin-4-yl)urea]: 197 nM and 100 nM.
As for `COCCn1cc(-c2ccc(C(C)NC(=O)N(C)C3CCN(C)CC3)c(Cl)c2Cl)cn1` (stereo not drawn) [Compound H0694, 3-(1-(2,3-dichloro-4-(1-(2-methoxyethyl)-1H-pyrazol-4-yl)phenyl)ethyl)-1-methyl-1-(1-methylpiperidin-4-yl)urea], the concentration for half-maximal inhibition (IC50) in assay [1] is 309 nM. The EC50 in assay [2] was > 30000 nM.
As for `CC(NC(=O)N(C)C1CCN(C)CC1)c1ccc(-c2cncc(Br)c2)c(Cl)c1Cl` (stereo not drawn) [Compound H0695, 3-(1-(4-(5-bromopyridin-3-yl)-2,3-dichlorophenyl)ethyl)-1-methyl-1-(1-methylpiperidin-4-yl)urea], the IC50 in assay [1] was found to be 78 nM. The EC50 in assay [2] stood at 5 nM.
`CC(NC(=O)N(C)C1CCN(C)CC1)c1ccc(-c2cc(F)cc(CO)c2)c(Cl)c1Cl` (stereo not drawn) [Compound H0696, 3-(1-(2,3-dichloro-3′-fluoro-5′-(hydroxymethyl)-[1,1′-biphenyl]-4-yl)ethyl)-1-methyl-1-(1-methylpiperidin-4-yl)urea]: the IC50 in assay [1] was determined as 120 nM. For the same compound, the EC50 in assay [2] was > 30000 nM.
On to `CC(NC(=O)N(C)C1CCN(C)CC1)c1ccc(-c2cncc(CC#N)c2)c(Cl)c1Cl` (stereo not drawn) [Compound H0699, 3-(1-(2,3-dichloro-4-(5-(cyanomethyl)pyridin-3-yl)phenyl)ethyl)-1-methyl-1-(1-methylpiperidin-4-yl)urea], for which, in assay [1], the IC50 was 171 nM. Moreover, the concentration for a half-maximal effect (EC50) in assay [2] was > 30000 nM.
In the case of `CC(=O)/C=C(\Cl)c1ccc(C(C)NC(=O)N(C)C2CCN(C)CC2)c(Cl)c1Cl` (stereo not drawn) [Compound H0702, (Z)-3-(1-(2,3-dichloro-4-(1-chloro-3-oxobut-1-en-1-yl)phenyl)ethyl)-1-methyl-1-(1-methylpiperidin-4-yl)urea], the IC50 in assay [1] amounted to 96 nM. In addition, in assay [2], the EC50 amounted to 1100 nM and the Emax is on record as 1940.
On to `CN1CCC(N(C)C(=O)NC(C)(C#N)c2ccc(-c3cncnc3)c(Cl)c2Cl)CC1` (stereo not drawn) [Compound H0703, 3-(1-cyano-1-(2,3-dichloro-4-(pyrimidin-5-yl)phenyl)ethyl)-1-methyl-1-(1-methylpiperidin-4-yl)urea], for which the IC50 in assay [1] was 695 nM. Further, the EC50 in assay [2] is > 30000 nM.
For `C=Cc1cncc(-c2ccc(C(C)NC(=O)N(C)C3CCN(C)CC3)c(Cl)c2Cl)c1` (stereo not drawn) [Compound H0706, 3-(1-(2,3-dichloro-4-(5-vinylpyridin-3-yl)phenyl)ethyl)-1-methyl-1-(1-methylpiperidin-4-yl)urea], in assay [1], the half-maximal inhibitory concentration (IC50) stood at 116 nM. In addition, in assay [2], the EC50 was determined as 91 nM and the Emax amounted to 2111.
Turning to `CC(NC(=O)N(C)C1CCN(C)CC1)c1ccc(-c2cncc(-c3cn[nH]c3)c2)c(Cl)c1Cl` (stereo not drawn) [Compound H0707, 3-(1-(4-(5-(1H-pyrazol-4-yl)pyridin-3-yl)-2,3-dichlorophenyl)ethyl)-1-methyl-1-(1-methylpiperidin-4-yl)urea], the IC50 in assay [1] was 185 nM. Also, the EC50 in assay [2] is > 30000 nM.
With `COCc1cncc(-c2ccc(C(C)NC(=O)N(C)C3CCN(C)CC3)c(Cl)c2Cl)c1` (stereo not drawn) [Compound H0708, 3-(1-(2,3-dichloro-4-(5-(methoxymethyl)pyridin-3-yl)phenyl)ethyl)-1-methyl-1-(1-methylpiperidin-4-yl)urea], the IC50 in assay [1] worked out at 1370 nM. In addition, in assay [2], the EC50 was > 30000 nM.
The matching figures for `CON(C(=O)NC(C#N)c1ccc(-c2cncnc2)c(Cl)c1Cl)C1CCN(C)CC1` (stereo not drawn) [Compound H0709]: 676 nM and > 30000 nM.
`C#Cc1cncc(-c2ccc(C(C)NC(=O)N(C)C3CCN(C)CC3)c(Cl)c2Cl)c1` (stereo not drawn) [Compound H0710, 3-(1-(2,3-dichloro-4-(5-ethynylpyridin-3-yl)phenyl)ethyl)-1-methyl-1-(1-methylpiperidin-4-yl)urea]: in assay [1], the IC50 came out at 275 nM. Besides, in assay [2], the EC50 was 395 nM and the Emax was determined as 1621.
Turning to `CC(NC(=O)N(C)C1CCN(C)CC1)c1ccc(-c2cncc(-c3c[nH]cn3)c2)c(Cl)c1Cl` (stereo not drawn) [Compound H0711, 3-(1-(4-(5-(1H-imidazol-4-yl)pyridin-3-yl)-2,3-dichlorophenyl)ethyl)-1-methyl-1-(1-methylpiperidin-4-yl)urea], the IC50 in assay [1] came to 1850 nM. Further, in assay [2], the EC50 was > 30000 nM.
For the compound `CC(=O)Nc1cncc(-c2ccc(C(C)NC(=O)N(C)C3CCN(C)CC3)c(Cl)c2Cl)c1` (stereo not drawn) [Compound H0712, N-(5-(2,3-dichloro-4-(1-(3-methyl-3-(1-methylpiperidin-4-yl)ureido)ethyl)phenyl)pyridin-3-yl)acetamide], the IC50 in assay [1] was 420 nM. Further, in assay [2], the EC50 is 220 nM and the Emax turned out to be 1962.
The matching figures for `CC(NC(=O)N(C)C1CCN(C)CC1)c1ccc(-c2ccc(C#N)s2)c(Cl)c1Cl` (stereo not drawn) [Compound H0713, 3-(1-(2,3-dichloro-4-(5-cyanothiophen-2-yl)phenyl)ethyl)-1-methyl-1-(1-methylpiperidin-4-yl)urea]: 187 nM, 29 nM and 3424.
